Here are results for 3 compounds from patent EP2402322A1, “1,2,3,4-tetrahydroisoquinoline derivative and its use as orexin receptor antagonist” (Actelion Pharmaceuticals Ltd., priority 2010, dated 2012).

Where two headings read alike, the source gives them in different places. Where only a bound is given, the exact number is not on record here.

Data set [1] deals with rat. Particulars: cited from earlier work.
The conditions of data set [2]: rat; cited from earlier work.
The test system of data set [3] is rat. Particulars: animal model of conditioned fear; cited from earlier work.
For data set [4], the system named is F344 rats. The data set can be described thus: Fear-potentiated startle paradigm. The data set is classed as in vivo. The settings on record: 300 mg/kg oral gavage, 1 h before test, n=16 F344 rats; Figure 2. An excerpt: The fear-potentiated startle (FPS) paradigm is a model of conditioned fear in rodents that relates to emotional states of fear and anxiety. Rats can be trained to associate an initially neutral, soon-to-be conditioned stimulus (CS: e.g. light) with an aversive, unconditioned stimulus (US; e.g. foot shook). When tested after training for their startle reflex response to brief (ms) noise bursts in the absence vs. the presence of the CS (e.g. light), rats generally show greater startle amplitudes during the presence of the CS which now serves as a predictor of shock. […] This model translates to humans where a similar training procedure can be implemented and a FPS response can also be evoked in the presence of a shock predicting cue. […] The current paradigm represents a translational animal model that is predictive of anxiolytic activity of a drug.
Method: Sixteen adult male F344 rats were trained for two consecutive days (conditioning phase) to associate a light-stimulus with a foot shock (0.4 mA). On the following day they were tested for their response to startle eliciting noise stimuli which were delivered randomly under light (cue) or dark (no cue) conditions. […] Average startle responses to noise stimuli of 90, 100 and 110dB intensity under light and dark conditions during the test day were measured and electrically transduced into a millivolt signal. […]

For data set [5], the system named is Male Sprague Dawley rats. The data set can be described thus: Acquisition of morphine induced locomotor sensitization. The data set is classed as in vivo. Particulars: 300 mg/kg p.o. 2 h before each morphine injection (10 mg/kg i.p.), 4 pairings; Figure 1. An excerpt:
Method: Although, in essence, locomotor sensitization is a non-associative learning process, the context plays a major role in the development and expression of locomotor sensitization. Thus, drug injections are usually administered intermittently in a context different from the home cage, such as an open field, where locomotor activity can be quantitatively measured. Drugs are regularly administered in high concentrations and via routes of administration with a fast onset of action (such as intraperitoneal or intravenous injections). In order to induce robust locomotor sensitization drugs are administered typically once a day over a period of several days. Once established in such a way, locomotor sensitization can be observed in response to a new drug challenge over a period of up to several months.
Method: Male Sprague Dawley rats are injected with morphine (10 mg/kg i.p.) and placed immediately afterwards in an open field (45 x 40 x 33 cm) for 45 min. Total distance moved (TDM) of the animal is recorded automatically via video-tracking. This procedure is repeated 4 times, every 2nd day, so that each animal received a total number of 4 pairings of morphine injection within the context of the open field.

Data set [6] can be described thus: Measurement of brain and systemic concentration after oral administration. The data set is classed as in vivo, male wistar rats. Particulars: rat; for concentration at 3 h: 3 h after oral administration (100 mg/kg), n = 3, male wistar rats, 100% PEG 400; for capacity to cross the blood-brain barrier: summary statement. As for the experimental part: The compounds are formulated in 100% PEG 400. Samples are collected in the same animal at the same time point (+/- 5 min). Blood is sampled from the vena cava caudalis into containers with EDTA as anticoagulant and centrifuged to yield plasma. Brain is sampled after cardiac perfusion of 10 mL NaCl 0.9% and homogenized into one volume of cold phosphate buffer (pH 7.4). All samples are extracted with MeOH and analyzed by LC-MS/MS. Concentrations are determined with the help of calibration curves.

Data set [7] concerns the target T1, human orexin-1 receptor (Homo sapiens, UniProt O43613).
T1 construct: expressed in transfected cells; host or cells: CHO cells (G418 selection)
T1 sequence (O43613 1-425): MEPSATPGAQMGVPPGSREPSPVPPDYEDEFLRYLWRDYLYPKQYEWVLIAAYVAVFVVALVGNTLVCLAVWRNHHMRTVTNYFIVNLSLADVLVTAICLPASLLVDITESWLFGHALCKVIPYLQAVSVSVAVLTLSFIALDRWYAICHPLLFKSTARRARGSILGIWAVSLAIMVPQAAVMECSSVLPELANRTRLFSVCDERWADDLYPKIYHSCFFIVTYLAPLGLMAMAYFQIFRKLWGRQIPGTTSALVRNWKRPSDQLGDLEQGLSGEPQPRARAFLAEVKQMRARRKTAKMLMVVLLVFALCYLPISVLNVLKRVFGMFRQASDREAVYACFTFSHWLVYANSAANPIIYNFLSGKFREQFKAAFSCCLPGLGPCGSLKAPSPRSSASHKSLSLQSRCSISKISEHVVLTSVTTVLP
The data set can be described thus: Intracellular calcium measurements (FLIPR), CHO cells, 3 nM orexin-A as agonist. The class given is cell-based. As for the experimental part:
Chinese hamster ovary (CHO) cells expressing the human orexin-1 receptor and the human orexin-2 receptor, respectively, are grown in culture medium (Ham F-12 with L-Glutamine) containing 300 µg/ml G418, 100 U/ml penicillin, 100 µg/ml streptomycin and 10 % heat inactivated fetal calf serum (FCS). The cells are seeded at 20'000 cells / well into 384-well black clear bottom sterile plates (Greiner). The seeded plates are incubated overnight at 37°C in 5% CO2.
Human orexin-A as an agonist is prepared as 1 mM stock solution in MeOH: water (1:1), diluted in HBSS containing 0.1 % bovine serum albumin (BSA), NaHCO3: 0.375g/l and 20 mM HEPES for use in the assay at a final concentration of 3 nM. […]
Within the Fluorescent Imaging Plate Reader (FLIPR Tetra, Molecular Devices), antagonists are added to the plate in a volume of 10 µl/well, incubated for 10 min and finally 10 µl/well of agonist is added. Fluorescence is measured for each well at 1 second intervals, and the height of each fluorescence peak is compared to the height of the fluorescence peak induced by 3 nM orexin-A with vehicle in place of antagonist. […] The calculated IC50 values may fluctuate depending on the daily cellular assay performance. […]

In data set [8] the test system is Wistar rats. The data set can be described thus: EEG, EMG and behavioural indices of alertness recorded by radiotelemetry (absence of sleep-promoting effects). The class given is in vivo. The protocol: EEG and EMG signals were measured by telemetry using TL11 M2-F20-EET miniature radiotelemetric implants (Data Science Int.) with two pairs of differential leads.
Surgical implantation was performed under general anesthesia with Ketamin/Xylazln, for cranial placement of one differential pair of EEG electrodes and one pair of EMG leads inserted in either side of the muscles of the neck. After surgery, rats recovered in a thermoregulated chamber and received analgesic treatment with subcutaneous buprenorphine twice a day for 2 d. They were then housed individually and allowed to recover for a minimum of 2 weeks. Thereafter, rats—in their home cage—were placed in a ventilate sound-attenuating box, on a 12-h light / 12-h dark cycle, for acclimatization before continuous EEG / EMG recordings started. The telemetric technology that we used in this study allows accurate and stress-free acquisition of biosignals in rats placed In their familiar home cage environment, with no recording leads restricting their movements. Variables analyzed included four different stages of vigilance and sleep, spontaneous activity in the home cage and body temperature. Sleep and wake stages were evaluated using a rodent scoring software (Somnologica Science) directly processing electrical biosignals on 10 s contiguous epochs. The scoring is based on frequency estimation for EEG and amplitude discrimination for EMG and locomotor activity. Using these measurements, the software determines the probability that all components within each epoch best represent active waking (AW), quiet waking (QW), non-REM-sleep (NREM) or REM-sleep (REM). The percentage of total time spent in AW, QW. NREM- and REM-sleep was calculated per 12 h light or dark period. The latency to the onset of the first significant NREM- and REM-sleep episodes and the frequency and duration of those episodes were also calculated. […] All variables were subsequently recorded for 12 h following administration of the orexin receptor antagonist.

Data set [9] deals with T2, human orexin-2 receptor (Homo sapiens, UniProt O43614).
T2 construct: expressed in transfected cells; host or cells: CHO cells (G418 selection)
T2 sequence (O43614 1-444): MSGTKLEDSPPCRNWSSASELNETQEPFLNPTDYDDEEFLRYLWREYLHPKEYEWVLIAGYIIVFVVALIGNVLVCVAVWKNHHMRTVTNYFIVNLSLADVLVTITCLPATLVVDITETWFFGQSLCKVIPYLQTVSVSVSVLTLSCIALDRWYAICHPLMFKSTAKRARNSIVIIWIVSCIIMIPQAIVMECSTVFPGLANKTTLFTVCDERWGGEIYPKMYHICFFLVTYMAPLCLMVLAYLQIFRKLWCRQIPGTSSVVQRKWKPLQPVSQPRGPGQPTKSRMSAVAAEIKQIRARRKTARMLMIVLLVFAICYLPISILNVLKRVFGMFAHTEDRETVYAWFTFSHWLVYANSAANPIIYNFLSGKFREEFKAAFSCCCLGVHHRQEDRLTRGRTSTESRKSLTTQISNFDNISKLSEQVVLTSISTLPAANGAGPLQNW
The data set can be described thus: Intracellular calcium measurements (FLIPR), CHO cells, 3 nM orexin-A as agonist. The data set is classed as cell-based. Particulars: geometric mean; antagonism of 3 nM orexin-A. As for the experimental part: Fluorescence is measured for each well at 1 second intervals, and the height of each fluorescence peak is compared to the height of the fluorescence peak induced by 3 nM orexin-A with vehicle in place of antagonist. […] Optimized conditions were achieved by adjustment of pipetting speed and cell splitting regime. The calculated IC50 values may fluctuate depending on the daily cellular assay performance. Fluctuations of this kind are known to those skilled in the art.
In general terms: Calcium flux is commonly read through the fluorescence of an indicator in the cells.

The mark [10] stands for this setting: brain, read-out: concentration in brain [B].
[11] abbreviates: plasma, read-out: concentration in plasma [P].
Setting [12] is: 300 mg/kg po, Wistar rats, 12 h following administration.

Regarding `CNC(=O)[C@@H](c1ccccc1)N1CCc2cc(OC)c(OC)cc2[C@@H]1CCc1ccc(C(F)(F)F)cc1` [(2R)-2-{(1S)-6,7-dimethoxy-1-[2-(4-trifluoromethyl-phenyl)-ethyl]-3,4-dihydro-1H-isoquinolin-2-yl}-N-methyl-2-phenyl-acetamide], in data set [1], the “alertness (active wake and locomotion)” value was “decrease alertness”; the “time spent in both REM and NREM sleep” value was “dose-dependently increase”. Moreover, in [2], the “crossing of the blood-brain barrier” value is reported as “cross the blood-brain barrier” and the systemic bioavailability entry was “good”. Moreover, in data set [3], the “activity in the rat fear potentiated startle paradigm” value is given as “active”.

Consider `COc1ccc(C[C@H]2c3cc(OC)c(OC)cc3CCN2[C@@H](C(=O)NC(C)C)c2ccccc2)cc1OC` [COMPOUND, (R)-2-[(S)-1-(3,4-dimethoxy-benzyl)-6,7-dimethoxy-3,4-dihydro-1H-isoquinolin-2-yl]-N-isopropyl-2-phenyl-acetamide], for which the “fear-potentiated startle response under light (cue) conditions as compared to vehicle” value in data set [4] is reported as “significantly reduced”. In [5], the “acquisition of locomotor sensitization to morphine (total distance moved)” value is “significantly reduced”. Also, the concentration at 3 h in [6] (setting [10]) amounted to 880 ng/g. Besides, in data set [6] (setting [11]), the concentration at 3 h turned out to be 1.46 µg/mL. Moreover, the “capacity to cross the blood-brain barrier” value in data set [6] is on record as “crossed the blood-brain barrier”. Further, the IC50 in [7] was 0.027 µM. In data set [8] (setting [12]), the “effect on NREM sleep compared to vehicle controls” value is listed as -2%, the “effect on REM sleep compared to vehicle controls” value was “+1%”, the “effect on active wake compared to vehicle controls” value was -4% and the “effect on home cage activity compared to vehicle controls” value is on record as -3%. The “effect in a model relevant to sleep induction” value in data set [8] (at relevant dose, summary statement) was “no effect”.

Take `CCCCNC(=O)[C@@H](c1ccccc1)N1CCc2cc(OC)c(OC)cc2[C@@H]1Cc1ccc(OC)c(OC)c1` [Reference Compound 1, (R)-2-[(S)-1-(3,4-Dimethoxy-benzyl)-6,7-dimethoxy-3,4-dihydro-1H-isoquinolin-2-yl]-N-butyl-2-phenyl-acetamide, reference compound]: the “fear-potentiated startle response under light (cue) conditions as compared to vehicle” value in data set [4] is reported as “no effect”. Also, the concentration at 3 h amounted to 530 ng/g in [6] (setting [10]) and 0.85 µg/mL in data set [6] (setting [11]). Also, the “capacity to cross the blood-brain barrier” value in data set [6] was “only moderate capacity”. The IC50 in data set [7] (geometric mean, antagonism of 3 nM orexin-A, read-out: IC50 value on the orexin-1 receptor) is 0.012 µM; in [9], above 0.3 µM.

Usually IC50 stands for the midpoint of a concentration-inhibition curve.
